Some test systems named below: SN12C renal; SNB-19 CNS; HCT-15 colon; OVCAR-8 ovarian; CAKI-1 renal; OVCAR-5 ovarian; SNB-78 CNS; HCC-2998 colon; NCI/ADR-RES ovarian; A498 renal.
Common to all, as to assay: inhibition of tumour cell growth, NCI panel, 48 h

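In this assay, cells in 96-well plates receive the compound at five concentrations for 48 hours. Endpoints are linearly interpolated between the surrounding concentrations. GI50: concentration for 50% inhibition of growth. TGI marks complete inhibition of growth.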

From PubChem BioAssay (NCI) come the findings set out here.

Consider `CCOC(=O)NC(=O)c1cn(CCNCCO)c(=O)[nH]c1=O`, for which the TGI in the assay with SN12C renal, in the assay on SNB-19 CNS, with HCT-15 colon, in the assay on OVCAR-8 ovarian, in the assay on CAKI-1 renal and in the assay with OVCAR-5 ovarian was > 100 µM throughout. Also, the TGI in the assay with SNB-78 CNS was > 100 µM.
Turning to `OCCCNc1nc(=S)[nH]c2[nH]ncc12`, the GI50 was 41 µM with SN12C renal; > 100 µM in the assay on SNB-19 CNS; 81.9 µM in the assay on HCT-15 colon; 22.3 µM with HCC-2998 colon; 37.8 µM in the assay with OVCAR-8 ovarian; 43.3 µM in the assay with CAKI-1 renal. Also, the GI50 in the assay with NCI/ADR-RES ovarian is > 100 µM; in the assay with OVCAR-5 ovarian it was 45.8 µM; in the assay on A498 renal, 13.3 µM. The TGI in the assay with SN12C renal, with SNB-19 CNS, in the assay on HCT-15 colon, in the assay on HCC-2998 colon, in the assay on OVCAR-8 ovarian and with CAKI-1 renal was > 100 µM in each case. Also, the values for the TGI with NCI/ADR-RES ovarian, in the assay on OVCAR-5 ovarian and in the assay with A498 renal were > 100 µM, > 100 µM and 48.2 µM, respectively.
Regarding `COc1ccc(CC2CCc3nc(N)nc(N)c3C2)cc1OC` (configuration not stated), the TGI was > 100 µM in the assay on SN12C renal; > 89 µM in the assay on SNB-19 CNS; 98 µM in the assay with HCT-15 colon; > 47 µM in the assay on HCC-2998 colon; > 62.5 µM in the assay on OVCAR-8 ovarian; > 100 µM in the assay on CAKI-1 renal. Besides, the TGI with NCI/ADR-RES ovarian was 16.3 µM; with OVCAR-5 ovarian, > 100 µM; with A498 renal it was > 100 µM.
In the case of `c1nc(N2CC2)c2cnn(C3CCCCO3)c2n1` (configuration not stated), the TGI with SN12C renal, in the assay on SNB-19 CNS, in the assay with HCT-15 colon, with HCC-2998 colon, with OVCAR-8 ovarian and with CAKI-1 renal was > 100 µM each time. Besides, the TGI in the assay with NCI/ADR-RES ovarian, in the assay on OVCAR-5 ovarian, in the assay on A498 renal and with SNB-78 CNS was > 100 µM each time.
On to `O=C(N/N=C/C=C/c1ccccc1)[C@H](O)[C@@H](O)C(=O)N/N=C/C=C/c1ccccc1`, for which the TGI in the assay on SN12C renal, in the assay with SNB-19 CNS, in the assay with HCT-15 colon, in the assay on HCC-2998 colon, in the assay on OVCAR-8 ovarian and with OVCAR-5 ovarian was > 100 µM in each case. Also, the TGI in the assay on A498 renal and in the assay with SNB-78 CNS was > 100 µM in each case.
